Data: PMC7676998 (Journal of medicinal chemistry, 2019)
Several values for one entry are separate records, joined by “and”; a condition that tells them apart may be missing. Equal values may be shown once. Read-outs that look alike come from different tables or passages of the source.

Columns and labels:
[1] = target: KOP (Homo sapiens, UniProt P41145); assay: cell-based; type: cell-based
[2] = target: T1, adrenergic α2A receptor (Homo sapiens, UniProt P08913); assay: Radioligand binding, adrenergic α2A
T1 sequence (P08913 1-465): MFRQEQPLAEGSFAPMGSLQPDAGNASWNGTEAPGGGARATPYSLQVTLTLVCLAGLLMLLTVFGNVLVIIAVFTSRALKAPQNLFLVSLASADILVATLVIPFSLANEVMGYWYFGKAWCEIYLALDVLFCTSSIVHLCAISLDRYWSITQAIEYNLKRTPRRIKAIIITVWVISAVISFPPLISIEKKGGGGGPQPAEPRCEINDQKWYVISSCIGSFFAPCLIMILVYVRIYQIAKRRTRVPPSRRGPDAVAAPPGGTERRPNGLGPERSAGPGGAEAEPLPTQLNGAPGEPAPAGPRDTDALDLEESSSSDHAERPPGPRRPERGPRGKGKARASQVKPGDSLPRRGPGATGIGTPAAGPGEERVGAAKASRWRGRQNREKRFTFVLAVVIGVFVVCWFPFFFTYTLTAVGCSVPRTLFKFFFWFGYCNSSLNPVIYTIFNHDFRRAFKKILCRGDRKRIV

[3] = target: DOP (Homo sapiens, UniProt P41143); type: cell-based
Sequence of DOP (P41143 whole entry): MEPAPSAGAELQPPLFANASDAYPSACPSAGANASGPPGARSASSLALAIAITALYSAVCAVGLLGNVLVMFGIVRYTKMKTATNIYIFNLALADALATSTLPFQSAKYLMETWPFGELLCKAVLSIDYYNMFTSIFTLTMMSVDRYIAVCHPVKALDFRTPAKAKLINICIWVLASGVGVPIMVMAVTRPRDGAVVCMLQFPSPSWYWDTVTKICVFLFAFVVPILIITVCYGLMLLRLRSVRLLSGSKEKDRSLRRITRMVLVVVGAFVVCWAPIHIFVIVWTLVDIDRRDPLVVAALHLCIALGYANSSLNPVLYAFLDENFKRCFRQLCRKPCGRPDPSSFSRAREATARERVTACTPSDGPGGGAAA

[4] = target: nociceptin NOP (ORL1) (Homo sapiens, UniProt P41146); assay: Radioligand binding, nociceptin receptor
Sequence of nociceptin NOP (ORL1) (P41146 whole entry): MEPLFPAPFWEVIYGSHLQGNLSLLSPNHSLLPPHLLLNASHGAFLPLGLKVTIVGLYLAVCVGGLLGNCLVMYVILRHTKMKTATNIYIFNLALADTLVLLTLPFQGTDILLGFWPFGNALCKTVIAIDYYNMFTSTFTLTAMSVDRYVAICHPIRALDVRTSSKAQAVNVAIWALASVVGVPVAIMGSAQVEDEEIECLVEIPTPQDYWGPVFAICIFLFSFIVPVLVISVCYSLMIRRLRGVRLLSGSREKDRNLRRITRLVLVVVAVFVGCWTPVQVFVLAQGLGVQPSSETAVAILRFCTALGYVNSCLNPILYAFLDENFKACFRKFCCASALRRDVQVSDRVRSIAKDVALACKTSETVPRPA

[5] = target: T2, adrenergic α1A receptor (Homo sapiens, UniProt P35348); assay: Radioligand binding, adrenergic α1A
T2 sequence (P35348 1-466): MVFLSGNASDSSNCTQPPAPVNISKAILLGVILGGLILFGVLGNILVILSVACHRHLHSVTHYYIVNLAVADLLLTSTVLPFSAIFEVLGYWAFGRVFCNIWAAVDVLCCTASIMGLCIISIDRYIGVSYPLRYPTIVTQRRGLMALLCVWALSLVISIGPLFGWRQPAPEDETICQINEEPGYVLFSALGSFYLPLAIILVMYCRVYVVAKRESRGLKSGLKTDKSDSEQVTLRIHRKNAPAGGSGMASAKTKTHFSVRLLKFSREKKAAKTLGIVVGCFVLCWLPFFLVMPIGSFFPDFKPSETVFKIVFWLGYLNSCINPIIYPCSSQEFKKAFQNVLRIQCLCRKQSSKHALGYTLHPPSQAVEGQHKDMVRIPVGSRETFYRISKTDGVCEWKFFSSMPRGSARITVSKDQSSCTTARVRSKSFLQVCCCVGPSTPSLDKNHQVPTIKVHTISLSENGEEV

[6] = target: mu opioid receptor (MOP) (Homo sapiens, UniProt P35372); type: binding
Sequence of mu opioid receptor (MOP) (P35372 whole entry): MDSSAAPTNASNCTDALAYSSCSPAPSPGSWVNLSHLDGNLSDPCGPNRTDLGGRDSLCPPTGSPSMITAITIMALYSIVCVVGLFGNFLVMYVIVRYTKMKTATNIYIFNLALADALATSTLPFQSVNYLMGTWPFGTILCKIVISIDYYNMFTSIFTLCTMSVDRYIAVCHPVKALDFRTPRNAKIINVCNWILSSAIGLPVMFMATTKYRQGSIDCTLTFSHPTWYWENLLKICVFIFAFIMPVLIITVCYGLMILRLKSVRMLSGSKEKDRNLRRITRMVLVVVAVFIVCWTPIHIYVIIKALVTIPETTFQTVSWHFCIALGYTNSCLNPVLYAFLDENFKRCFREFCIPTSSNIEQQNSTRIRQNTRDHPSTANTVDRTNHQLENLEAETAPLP

[7] = target: MOP (Homo sapiens, UniProt P35372); type: cell-based
Sequence of MOP (Homo sapiens, UniProt P35372) (P35372 whole entry): as above

[8] = test system: MOP; conditions: read-out: EC50 at MOP; other study ref 17; cited from earlier work
[9] = target: T3, adrenergic α1D receptor (Homo sapiens, UniProt P25100); assay: Radioligand binding, adrenergic α1D
T3 sequence (P25100 1-572): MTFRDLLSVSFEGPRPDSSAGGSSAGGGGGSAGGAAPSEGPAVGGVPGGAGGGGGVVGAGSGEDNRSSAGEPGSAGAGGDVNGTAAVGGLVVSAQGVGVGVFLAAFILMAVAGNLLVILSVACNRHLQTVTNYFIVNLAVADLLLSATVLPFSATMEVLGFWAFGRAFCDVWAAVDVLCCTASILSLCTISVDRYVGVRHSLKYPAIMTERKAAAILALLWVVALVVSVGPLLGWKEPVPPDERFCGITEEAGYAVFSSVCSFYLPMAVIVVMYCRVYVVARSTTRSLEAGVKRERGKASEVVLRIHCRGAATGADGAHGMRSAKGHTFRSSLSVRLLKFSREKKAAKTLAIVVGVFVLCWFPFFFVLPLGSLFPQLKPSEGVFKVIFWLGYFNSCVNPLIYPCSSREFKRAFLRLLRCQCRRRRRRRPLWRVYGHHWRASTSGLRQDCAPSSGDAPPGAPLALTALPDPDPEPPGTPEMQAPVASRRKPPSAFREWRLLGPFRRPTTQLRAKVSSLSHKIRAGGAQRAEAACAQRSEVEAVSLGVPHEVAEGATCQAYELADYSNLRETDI

[10] = test system: Sprague-Dawley rats; conditions: rat, in vivo, iv
[11] = target: T4, adrenergic α1B receptor (Homo sapiens, UniProt P35368); assay: Radioligand binding, adrenergic α1B
T4 sequence (P35368 1-520): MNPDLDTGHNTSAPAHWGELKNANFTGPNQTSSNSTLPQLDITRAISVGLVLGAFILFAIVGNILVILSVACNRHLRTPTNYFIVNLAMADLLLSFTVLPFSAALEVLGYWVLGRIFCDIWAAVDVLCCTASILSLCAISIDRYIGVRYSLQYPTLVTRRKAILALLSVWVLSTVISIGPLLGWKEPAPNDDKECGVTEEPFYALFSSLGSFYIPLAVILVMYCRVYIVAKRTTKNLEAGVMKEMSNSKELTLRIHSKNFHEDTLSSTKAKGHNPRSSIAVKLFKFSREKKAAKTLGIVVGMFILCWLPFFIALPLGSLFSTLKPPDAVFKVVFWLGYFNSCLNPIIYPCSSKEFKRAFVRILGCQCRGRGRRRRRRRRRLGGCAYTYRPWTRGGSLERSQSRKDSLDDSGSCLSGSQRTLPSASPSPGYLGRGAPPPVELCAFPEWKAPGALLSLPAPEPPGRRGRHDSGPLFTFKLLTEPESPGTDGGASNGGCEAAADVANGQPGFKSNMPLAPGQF

[12] = test system: rats; conditions: Sprague-Dawley, rat, in vivo
[13] = test system: guinea pig ileum; conditions: in words ref 15; cited from earlier work
[14] = test system: human opioid receptors (MOP); conditions: BRET assay; in words ref 14; cited from earlier work
[15] = test system: Sprague-Dawley rats; conditions: rat, in vivo, iv; remark: listed apart in the source
[16] = target: T5, adrenergic α2B receptor (Homo sapiens, UniProt P18089); type: binding
T5 sequence (P18089 1-450): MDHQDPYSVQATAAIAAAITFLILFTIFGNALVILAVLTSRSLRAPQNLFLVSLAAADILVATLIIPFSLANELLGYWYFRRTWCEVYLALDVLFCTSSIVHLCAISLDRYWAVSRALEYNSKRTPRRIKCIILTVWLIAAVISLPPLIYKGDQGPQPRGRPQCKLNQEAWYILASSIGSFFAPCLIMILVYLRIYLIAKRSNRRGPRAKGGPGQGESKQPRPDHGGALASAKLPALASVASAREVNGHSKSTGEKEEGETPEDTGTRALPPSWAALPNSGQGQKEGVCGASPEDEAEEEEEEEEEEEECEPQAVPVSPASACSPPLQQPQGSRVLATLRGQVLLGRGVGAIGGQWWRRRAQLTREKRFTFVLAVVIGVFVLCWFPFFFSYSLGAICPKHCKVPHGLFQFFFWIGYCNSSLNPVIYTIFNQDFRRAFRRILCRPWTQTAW

[17] = target: delta opioid receptor (DOP) (Homo sapiens, UniProt P41143); assay: Radioligand binding, delta opioid receptor
Sequence of delta opioid receptor (DOP) (P41143 whole entry): as the sequence (P41143 whole entry) above

[18] = target: T6, α1B adrenergic receptor (Homo sapiens, UniProt P35368); type: cell-based
T6 sequence (P35368 1-520): T4 sequence (P35368 1-520)

[19] = target: T7, α1A adrenergic receptor (Homo sapiens, UniProt P35348); type: cell-based
T7 sequence (P35348 1-466): T2 sequence (P35348 1-466)

[20] = target: T8, α1D adrenergic receptor (Homo sapiens, UniProt P25100); type: cell-based
T8 sequence (P25100 1-572): T3 sequence (P25100 1-572)

[21] = target: T9, α2C adrenergic receptor (Homo sapiens, UniProt P18825); type: cell-based
T9 sequence (P18825 1-462): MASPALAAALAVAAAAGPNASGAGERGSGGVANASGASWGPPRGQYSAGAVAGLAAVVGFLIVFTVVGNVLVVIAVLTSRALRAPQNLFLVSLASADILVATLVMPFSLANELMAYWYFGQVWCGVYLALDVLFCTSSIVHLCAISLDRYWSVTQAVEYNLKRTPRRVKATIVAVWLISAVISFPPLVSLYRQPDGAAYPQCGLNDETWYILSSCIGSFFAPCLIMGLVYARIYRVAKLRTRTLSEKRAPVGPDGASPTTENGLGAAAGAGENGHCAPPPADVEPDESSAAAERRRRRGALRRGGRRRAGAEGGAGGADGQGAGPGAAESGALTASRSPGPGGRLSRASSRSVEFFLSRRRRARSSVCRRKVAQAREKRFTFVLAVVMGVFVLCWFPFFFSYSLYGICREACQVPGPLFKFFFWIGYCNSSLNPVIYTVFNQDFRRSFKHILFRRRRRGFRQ

Sequence of KOP (P41145 whole entry): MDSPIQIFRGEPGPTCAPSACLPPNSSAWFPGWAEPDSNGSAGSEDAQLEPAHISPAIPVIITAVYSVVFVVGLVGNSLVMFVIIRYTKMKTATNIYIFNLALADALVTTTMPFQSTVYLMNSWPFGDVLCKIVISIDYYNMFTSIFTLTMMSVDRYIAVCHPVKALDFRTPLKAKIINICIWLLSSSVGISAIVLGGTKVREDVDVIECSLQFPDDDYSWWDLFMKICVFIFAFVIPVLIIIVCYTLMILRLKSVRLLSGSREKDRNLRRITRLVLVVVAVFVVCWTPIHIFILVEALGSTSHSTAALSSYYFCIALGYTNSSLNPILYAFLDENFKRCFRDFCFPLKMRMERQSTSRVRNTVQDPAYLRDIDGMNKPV

SMILES	functional effect at KOP [1]	percent displacement of bound radioligand, adrenergic a2A ([2]; 100 nM test compound) [%]	percent displacement of bound radioligand, adrenergic a2A ([2]; 10,000 nM test compound) [%]	percent displacement of bound radioligand, nociceptin NOP (ORL1) ([4]; 100 nM test compound) [%]	percent displacement of bound radioligand, nociceptin NOP (ORL1) ([4]; 10,000 nM test compound) [%]	percent displacement of bound radioligand, adrenergic α1A ([5]; 100 nM test compound) [%]	percent displacement of bound radioligand, adrenergic α1A ([5]; 10,000 nM test compound) [%]	functional effect at MOP [7]	percent displacement of bound radioligand, adrenergic α1D ([9]; 100 nM test compound) [%]	percent displacement of bound radioligand, adrenergic α1D ([9]; 10,000 nM test compound) [%]	percent displacement of bound radioligand, adrenergic α1B ([11]; 100 nM test compound) [%]	percent displacement of bound radioligand, adrenergic α1B ([11]; 10,000 nM test compound) [%]	percent displacement of bound radioligand, adrenergic α2B ([16]; 100 nM test compound) [%]	percent displacement of bound radioligand, adrenergic α2B ([16]; 10,000 nM test compound) [%]	percent displacement of bound radioligand, opioid μ ([6]; 100 nM test compound) [%]	percent displacement of bound radioligand, opioid μ ([6]; 10,000 nM test compound) [%]	percent displacement of bound radioligand, opioid δ ([17]; 10,000 nM test compound) [%]	other results
CC[C@@H]1CN2CC[C@@]3(O)C(=Nc4cccc(OC)c43)[C@@H]2C[C@@H]1/C(=C\OC)C(=O)OC [7-hydroxymitragynine]	competitive antagonist	−6.7	−5.4	−1.6	3.4	10.1	3.5	full agonist	−1.9	13.5	5.9	−4.8	–	–	–	–	–	Kb [1]: 115 nM; functional effect at DOP [3]: competitive antagonist; percent displacement of bound radioligand, opioid μ [6]: 81.8% and 100.7%; EC50 [8]: 53 ± 4 nM; effect of naltrexone on antinociception ([10]; 0.1 mg/kg): reversed
CC[C@@H]1CN2CCc3c([nH]c4cccc(OC)c34)[C@H]2C[C@@H]1/C(=C\OC)C(=O)OC [speciociliatine]	no agonist or antagonist effects	–	–	−14.9	–	–	–	partial agonists	–	–	–	–	–	–	–	–	–	lethality (rats dead / rats tested) [12]: 5/21; inhibition of electrically induced twitch contraction [13]: maximum inhibition of electrically induced twitch contraction of guinea pig ileum similar to morphine; agonist / antagonist activity at human opioid receptors [14]: no measurable agonist activity; change in body temperature (hypothermia) [15]: produced hypothermia; antinociceptive effects in hot plate test ([10]; 10 mg/kg): had antinociceptive effects
CC[C@@H]1CN2CCc3c([nH]c4cccc(O)c34)[C@@H]2C[C@@H]1/C(=C\OC)C(=O)OC [9-hydroxycorynantheidine]	–	−10.2	20.0	−2.9	28.9	16.4	62.3	–	12.4	66.3	−4.4	29.0	−5.7	14.6	29.3	95.4	25.3	–
CC[C@@H]1CN2CCc3c([nH]c4cccc(OC)c34)[C@@H]2C[C@@H]1/C(=C\OC)C(=O)OC [mitragynine]	–	–	–	–	–	–	–	partial agonists	–	–	−12.5	–	–	–	–	–	–	antagonist effect at α−1B [18]: competitive antagonist effects; agonist effect at α1A [19]: partial agonist; antagonist effect at α−1A [19]: competitive antagonist effects; agonist effect at α1D [20]: partial agonist; antagonist effect at α−1D [20]: competitive antagonist effects; antagonist effect at α−2C [21]: competitive antagonist effects
CC[C@@H]1CN2CCc3c([nH]c4ccccc34)[C@@H]2C[C@@H]1/C(=C\OC)C(=O)OC [corynantheidine]	–	27.2	95.1	−1.3	27.0	45.9	100.5	–	73.5	101.2	19.6	91.0	8.5	79.9	39.6	96.8	31.4	percent displacement of bound radioligand, opioid δ ([17]; 100 nM test compound): 8.6%; fold higher affinity at the α−1D receptor than mitragynine ([9]; ratio of Ki versus mitragynine): 131 fold
